In ChEMBL document CHEMBL1201862, “PubChem BioAssay data set” (2004):
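Compound exposure: 48 hours, 5 concentrations, 96-well plates. GI50 = concentration required for 50% inhibition of growth.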 Activity calls are given as the source filed them. No stated cut-off is given here; in the data, active = GI50 up to about 1.1 µM and inactive = higher.

What was measured:
Experiment in all cases: NCI tumour cell line growth inhibition, 48 h
HCT-116 = system: HCT-116
TK-10 = system: TK-10
SNB-19 = system: SNB-19
SNB-75 = system: SNB-75
PC-3 = system: PC-3
OVCAR-5 = system: OVCAR-5
SK-MEL-5 = system: SK-MEL-5
KM12 = system: KM12
T47D = system: T47D
OVCAR-3 = system: OVCAR-3
OVCAR-8 = system: OVCAR-8
UACC-62 = system: UACC-62
NCI/ADR-RES = system: NCI/ADR-RES
CCRF-CEM = system: CCRF-CEM
K562 = system: K562
SF-539 = system: SF-539
HOP-92 = system: HOP-92
MDA-N = system: MDA-N
U-251 = system: U-251
HCC 2998 = system: HCC 2998
SN12C = system: SN12C
NCI-H226 = system: NCI-H226
RPMI-8226 = system: RPMI-8226
UO-31 = system: UO-31
SK-MEL-28 = system: SK-MEL-28
786-0 = system: 786-0
CAKI-1 = system: CAKI-1
A498 = system: A498
RXF 393 = system: RXF 393
EKVX = system: EKVX
OVCAR-4 = system: OVCAR-4
LOX IMVI = system: LOX IMVI
MCF7 = system: MCF7
HOP-62 = system: HOP-62
UACC-257 = system: UACC-257
SF-268 = system: SF-268
MDA-MB-231 = system: MDA-MB-231
MDA-MB-435 = system: MDA-MB-435
HCT-15 = system: HCT-15
ACHN = system: ACHN
DU-145 = system: DU-145
COLO 205 = system: COLO 205
SF-295 = system: SF-295
M14 = system: M14
SK-MEL-2 = system: SK-MEL-2
SK-OV-3 = system: SK-OV-3
A549 = system: A549
Hs-578T = system: Hs-578T
SW-620 = system: SW-620
MOLT-4 = system: MOLT-4
NCI-H460 = system: NCI-H460
HL-60 = system: HL-60
HT-29 = system: HT-29
Malme-3M = system: Malme-3M
NCI-H23 = system: NCI-H23

## COc1cccc([C@@H]2CC(=O)c3cc4c(cc3N2)OCO4)c1
HCT-116
  GI50: > 100 µM (inactive)
TK-10
  GI50: > 100 µM (inactive)
SNB-19
  GI50: > 100 µM (inactive)
SNB-75
  GI50: 86.3 µM (inactive)
PC-3
  GI50: > 100 µM (inactive)
OVCAR-5
  GI50: > 100 µM (inactive)
SK-MEL-5
  GI50: 96.8 µM (inactive)
KM12
  GI50: > 100 µM (inactive)
T47D
  GI50: > 100 µM (inactive)
OVCAR-3
  GI50: > 100 µM (inactive)
OVCAR-8
  GI50: > 100 µM (inactive)
UACC-62
  GI50: 65.3 µM (inactive)
NCI/ADR-RES
  GI50: > 100 µM (inactive)
CCRF-CEM
  GI50: > 100 µM (inactive)
K562
  GI50: 98.4 µM (inactive)
SF-539
  GI50: > 100 µM (inactive)
HOP-92
  GI50: > 100 µM (inactive)
MDA-N
  GI50: > 100 µM (inactive)
U-251
  GI50: > 100 µM (inactive)
HCC 2998
  GI50: > 100 µM (inactive)
SN12C
  GI50: > 100 µM (inactive)
NCI-H226
  GI50: > 100 µM (inactive)
RPMI-8226
  GI50: 76.4 µM (inactive)
UO-31
  GI50: > 100 µM (inactive)
SK-MEL-28
  GI50: > 100 µM (inactive)
786-0
  GI50: > 100 µM (inactive)
CAKI-1
  GI50: > 100 µM (inactive)
A498
  GI50: > 100 µM (inactive)
RXF 393
  GI50: > 100 µM (inactive)
EKVX
  GI50: > 100 µM (inactive)
OVCAR-4
  GI50: > 100 µM (inactive)
LOX IMVI
  GI50: > 100 µM (inactive)
MCF7
  GI50: > 100 µM (inactive)
HOP-62
  GI50: > 100 µM (inactive)
UACC-257
  GI50: > 100 µM (inactive)
SF-268
  GI50: > 100 µM (inactive)
MDA-MB-231
  GI50: > 100 µM (inactive)
MDA-MB-435
  GI50: 71.6 µM (inactive)
HCT-15
  GI50: > 100 µM
ACHN
  GI50: > 100 µM (inactive)
DU-145
  GI50: > 100 µM (inactive)
COLO 205
  GI50: > 100 µM (inactive)
SF-295
  GI50: > 100 µM (inactive)
M14
  GI50: > 100 µM (inactive)
SK-MEL-2
  GI50: > 100 µM (inactive)
SK-OV-3
  GI50: > 100 µM (inactive)
A549
  GI50: > 100 µM (inactive)
Hs-578T
  GI50: 64.9 µM (inactive)
SW-620
  GI50: > 100 µM (inactive)

## O=C1CCC2CCC1C2 (stereo unspecified)
HCT-116
  GI50: > 100 µM (inactive)
TK-10
  GI50: > 100 µM (inactive)
SNB-19
  GI50: > 100 µM (inactive)
SNB-75
  GI50: > 100 µM (inactive)
PC-3
  GI50: > 100 µM (inactive)
OVCAR-5
  GI50: > 100 µM (inactive)
SK-MEL-5
  GI50: > 100 µM (inactive)
KM12
  GI50: > 100 µM (inactive)
T47D
  GI50: > 100 µM (inactive)
OVCAR-3
  GI50: > 100 µM (inactive)
MOLT-4
  GI50: > 100 µM (inactive)
NCI-H460
  GI50: > 100 µM (inactive)
OVCAR-8
  GI50: > 100 µM (inactive)
UACC-62
  GI50: > 100 µM (inactive)
NCI/ADR-RES
  GI50: > 100 µM (inactive)
CCRF-CEM
  GI50: > 100 µM (inactive)
K562
  GI50: > 100 µM (inactive)
SF-539
  GI50: > 100 µM (inactive)
MDA-N
  GI50: > 100 µM (inactive)
U-251
  GI50: > 100 µM (inactive)
HCC 2998
  GI50: > 100 µM (inactive)
HL-60
  GI50: > 100 µM (inactive)
SN12C
  GI50: > 100 µM (inactive)
NCI-H226
  GI50: > 100 µM (inactive)
RPMI-8226
  GI50: > 100 µM (inactive)
UO-31
  GI50: > 100 µM (inactive)
SK-MEL-28
  GI50: > 100 µM (inactive)
786-0
  GI50: > 100 µM (inactive)
CAKI-1
  GI50: > 100 µM (inactive)
A498
  GI50: > 100 µM (inactive)
RXF 393
  GI50: 96.4 µM (inactive)
OVCAR-4
  GI50: > 100 µM (inactive)
LOX IMVI
  GI50: > 100 µM (inactive)
MCF7
  GI50: > 100 µM (inactive)
HOP-62
  GI50: > 100 µM (inactive)
UACC-257
  GI50: > 100 µM (inactive)
SF-268
  GI50: > 100 µM (inactive)
MDA-MB-231
  GI50: > 100 µM (inactive)
MDA-MB-435
  GI50: > 100 µM (inactive)
HT-29
  GI50: > 100 µM (inactive)
HCT-15
  GI50: > 100 µM
ACHN
  GI50: > 100 µM (inactive)
DU-145
  GI50: > 100 µM (inactive)
COLO 205
  GI50: > 100 µM (inactive)
Malme-3M
  GI50: > 100 µM (inactive)
SF-295
  GI50: > 100 µM (inactive)
M14
  GI50: > 100 µM (inactive)
SK-MEL-2
  GI50: > 100 µM (inactive)
SK-OV-3
  GI50: > 100 µM (inactive)
NCI-H23
  GI50: > 100 µM (inactive)
A549
  GI50: > 100 µM (inactive)
Hs-578T
  GI50: > 100 µM (inactive)
